Test results: US9145391B2, “Bipyridylaminopyridines as Syk inhibitors” (Merck Sharp & Dohme Corp., priority 2011, dated 2015)

molecular target: recombinant human GST-Syk (Homo sapiens (Human), UniProt P43405); assay: Homogeneous Time-Resolved Fluorescence (HTRF) assay for the recombinant human Syk enzyme; type: biochemical; details: recombinant human GST-Syk 5 pM, ATP 25 μM, read-out: rhSyk IC50
Outline: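 HTRF read-out of phosphorylation of a biotinylated Syk-site peptide (250 nM final) by a GST-tagged human Syk fusion. Reaction initiated with ATP at 25 μM final plus 5 mM magnesium final. Compound potency taken from inhibition of human Syk activity.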

Structure (SMILES) | IC50 [nM]
Cc1cc(Nc2cc(C(F)(F)F)ccn2)nc(-c2ccc(NC3CCN(C(=O)c4[nH]c5ccccc5c4C)CC3)nc2)c1 [Example 4-6] | 22
Cc1cc(Nc2cc(C(F)(F)F)ccn2)nc(-c2ccc(NC3CCN(C(=O)c4cccc(-c5cn[nH]c5)c4)CC3)nc2)c1 [Example 4-9] | 12
Cc1cc(Nc2cc(C(F)(F)F)ccn2)nc(-c2ccc(NC3CCN(C(=O)c4cc(-c5ccccc5)n[nH]4)CC3)nc2)c1 [Example 4-10] | 14
Cc1cc(Nc2cc(C(F)(F)F)ccn2)nc(-c2ccc(N3CCCC(NC(=O)c4ccc5cc[nH]c5c4)C3)nc2)c1 (centres unmarked) [Example 4-17] | 32
CC(=O)NC1CCCN(c2ccc(-c3cc(C)cc(Nc4cc(C(F)(F)F)ccn4)n3)cn2)C1 (centres unmarked) [Example 4-18] | 14
Cc1cc(Nc2cc(C(F)(F)F)ccn2)nc(-c2ccc(NC3CCN(C(=O)c4cccc(-c5ccncc5)c4)CC3)nc2)c1 [Example 4-19] | 12
Cc1cc(Nc2cc(C(F)(F)F)ccn2)nc(-c2ccc(NC3CCN(C(=O)c4cc5cccc(C)c5nc4C)CC3)nc2)c1 [Example 4-21] | 89
Cc1cc(Nc2cc(C(F)(F)F)ccn2)nc(-c2ccc(NC3CCN(C(=O)COc4ccccc4-c4ccccc4)CC3)nc2)c1 [Example 4-25] | 209
Cc1cc(Nc2cc(C(F)(F)F)ccn2)nc(-c2ccc(NC3CCN(C(=O)c4cn[nH]c4-c4ccccc4)CC3)nc2)c1 [Example 4-28] | 27
Cc1cc(Nc2cc(C(F)(F)F)ccn2)nc(-c2ccc(NC3CCN(C(=O)c4nn(-c5ccccc5)nc4C)CC3)nc2)c1 [Example 4-30] | 137
Cc1cc(Nc2cc(C(F)(F)F)ccn2)nc(-c2ccc(NC3CCN(C(=O)c4ccnn4-c4ccccc4)CC3)nc2)c1 [Example 4-32] | 54
Cc1cc(Nc2cc(C(F)(F)F)ccn2)nc(-c2ccc(NC3CCN(C(=O)c4cccc(-n5cccn5)c4)CC3)nc2)c1 [Example 4-36] | 10
Cc1cc(Nc2cc(C(F)(F)F)ccn2)nc(-c2ccc(NC3CCN(C(=O)c4ccccc4N(C)C)CC3)nc2)c1 [Example 4-38] | 40
Cc1cc(Nc2cc(C(F)(F)F)ccn2)nc(-c2ccc(NC3CCN(C(=O)c4cccc(C(F)(F)F)c4)CC3)nc2)c1 [Example 4-40] | 102
Cc1cc(Nc2cc(C(F)(F)F)ccn2)nc(-c2ccc(NC3CCN(C(=O)Cc4ccc5ccccc5c4)CC3)nc2)c1 [Example 4-41] | 58
Cc1cc(Nc2cc(C(F)(F)F)ccn2)nc(-c2ccc(NC3CCN(C(=O)c4cccc5c4C(=O)c4ccccc4-5)CC3)nc2)c1 [Example 4-43] | 29

Structure (SMILES) | IC50 [nM]
Cc1cc(Nc2cc(C(F)(F)F)ccn2)nc(-c2ccc(NC3CCN(C(=O)c4cc(-n5cccn5)ccc4Cl)CC3)nc2)c1 [Example 4-48] | 30
Cc1cc(Nc2cc(C(F)(F)F)ccn2)nc(-c2ccc(NC3CCN(C(=O)c4ccc5ccccc5c4)CC3)nc2)c1 [Example 4-49] | 19
Cc1cc(Nc2cc(C(F)(F)F)ccn2)nc(-c2ccc(NC3CCN(C(=O)c4cccc(Oc5ccccc5)c4)CC3)nc2)c1 [Example 4-50] | 97
Cc1cc(Nc2cc(C(F)(F)F)ccn2)nc(-c2ccc(NC3CCN(C(=O)c4cnc5ccc(C)cc5c4)CC3)nc2)c1 [Example 4-51] | 10
Cc1cc(Nc2cc(C(F)(F)F)ccn2)nc(-c2ccc(NC3CCN(C(=O)Cc4cccc5ccccc45)CC3)nc2)c1 [Example 4-52] | 53
COc1ccc2cc(CC(=O)N3CCC(Nc4ccc(-c5cc(C)cc(Nc6cc(C(F)(F)F)ccn6)n5)cn4)CC3)ccc2c1 [Example 4-53] | 78
Cc1cc(Nc2cc(C(F)(F)F)ccn2)nc(-c2ccc(NC3CCN(C(=O)c4cccc5c4Cc4ccccc4-5)CC3)nc2)c1 [Example 4-54] | 149
COc1ccc2cc(C(C)C(=O)N3CCC(Nc4ccc(-c5cc(C)cc(Nc6cc(C(F)(F)F)ccn6)n5)cn4)CC3)ccc2c1 (centres unmarked) [Example 4-55] | 223
CCc1ccc(OCC(=O)N2CCC(Nc3ccc(-c4cc(C)cc(Nc5cc(C(F)(F)F)ccn5)n4)cn3)CC2)cc1 [Example 4-56] | 39
Cc1cc(Nc2cc(C(F)(F)F)ccn2)nc(-c2ccc(NC3CCN(C(=O)Cc4ccc(Oc5ccccc5)cc4)CC3)nc2)c1 [Example 4-57] | 175
Cc1cc(Nc2cc(C(F)(F)F)ccn2)nc(-c2ccc(NC3CCN(C(=O)c4cccc5ccccc45)CC3)nc2)c1 [Example 4-59] | 61
Cc1cc(Nc2cc(C(F)(F)F)ccn2)nc(-c2ccc(NC3CCN(C(=O)c4cn(Cc5ccccc5)c5ccccc45)CC3)nc2)c1 [Example 4-60] | 422
Cc1cc(Nc2cc(C(F)(F)F)ccn2)nc(-c2ccc(NC3CCN(C(=O)c4cccc(-c5cc[nH]n5)c4)CC3)nc2)c1 [Example 4-62] | 15
COc1c(C(=O)N2CCC(Nc3ccc(-c4cc(C)cc(Nc5cc(C(F)(F)F)ccn5)n4)cn3)CC2)ccc2ccccc12 [Example 4-64] | 83
Cc1cc(Nc2cc(C(F)(F)F)ccn2)nc(-c2ccc(NC3CCN(C(=O)c4nccc5ccccc45)CC3)nc2)c1 [Example 4-65] | 20
Cc1cc(Nc2cc(C(F)(F)F)ccn2)nc(-c2ccc(NC3CCN(C(=O)c4ccnc5ccccc45)CC3)nc2)c1 [Example 4-66] | 24

Results, then the compound that gave them:

IC50 [nM] | Structure (SMILES)
1 | Cc1cc(Nc2cc(C(F)(F)F)ccn2)nc(-c2ccc(NC3CCN(C(=O)Cc4ccc5ccn(C)c5c4)CC3)nc2)c1 [Example 4-2]
8 | Cc1cc(Nc2cc(C(F)(F)F)ccn2)nc(-c2ccc(NC3CCN(C(=O)Cc4ccc5cn[nH]c5c4)CC3)nc2)c1 [Example 4-3]
1 | Cc1cc(Nc2cc(C(F)(F)F)ccn2)nc(-c2ccc(NC3CCN(C(=O)c4ccc5c(c4)C(=O)NC5)CC3)nc2)c1 [Example 4-4]
2 | Cc1cc(Nc2cc(C(F)(F)F)ccn2)nc(-c2ccc(NC3CCN(C(=O)c4ccc5c(c4)CNC5=O)CC3)nc2)c1 [Example 4-5]
10 | Cc1cc(Nc2cc(C(F)(F)F)ccn2)nc(-c2ccc(NC3CCN(C(=O)c4ccc5[nH]cc(C)c5c4)CC3)nc2)c1 [Example 4-7]
7 | Cc1cc(Nc2cc(C(F)(F)F)ccn2)nc(-c2ccc(NC3CCN(C(=O)Cc4n[nH]c5ccccc45)CC3)nc2)c1 [Example 4-8]
2 | Cc1cc(Nc2cc(C(F)(F)F)ccn2)nc(-c2ccc(NC3CCN(C(=O)CCN4CCCC4=O)CC3)nc2)c1 [Example 4-11]
4 | Cc1cc(Nc2cc(C(F)(F)F)ccn2)nc(-c2ccc(NC3CCN(C(=O)Cc4cccc5ncccc45)CC3)nc2)c1 [Example 4-12]
9 | Cc1cc(Nc2cc(C(F)(F)F)ccn2)nc(-c2ccc(NC3CCN(C(=O)c4cccc5ncccc45)CC3)nc2)c1 [Example 4-13]
6 | Cc1cc(Nc2cc(C(F)(F)F)ccn2)nc(-c2ccc(NC3CCN(C(=O)c4ccc5sc(C)nc5c4)CC3)nc2)c1 [Example 4-14]
7 | Cc1cc(Nc2cc(C(F)(F)F)ccn2)nc(-c2ccc(NC3CCN(C(=O)c4ccc5cc[nH]c5c4)CC3)nc2)c1 [Example 4-15]
4 | CC(=O)N1CCC(Nc2ccc(-c3cc(C)cc(Nc4cc(C(F)(F)F)ccn4)n3)cn2)CC1 [Example 4-16]
4 | Cc1cc(Nc2cc(C(F)(F)F)ccn2)nc(-c2ccc(NC3CCN(C(=O)c4ccccc4N4CCN(C)CC4)CC3)nc2)c1 [Example 4-20]
3 | Cc1cc(Nc2cc(C(F)(F)F)ccn2)nc(-c2ccc(NC3CCN(C(=O)c4ccc(C(N)=O)cc4)CC3)nc2)c1 [Example 4-23]
7 | Cc1cc(Nc2cc(C(F)(F)F)ccn2)nc(-c2ccc(NC3CCN(C(=O)c4ccc5ccccc5n4)CC3)nc2)c1 [Example 4-24]
7 | Cc1cc(Nc2cc(C(F)(F)F)ccn2)nc(-c2ccc(NC3CCN(C(=O)c4ccccc4Cn4cncn4)CC3)nc2)c1 [Example 4-26]
3 | Cc1cc(Nc2cc(C(F)(F)F)ccn2)nc(-c2ccc(NC3CCN(C(=O)c4cccc(C(N)=O)c4)CC3)nc2)c1 [Example 4-27]
7 | Cc1cc(Nc2cc(C(F)(F)F)ccn2)nc(-c2ccc(NC3CCN(C(=O)c4cccc(Cn5cccn5)c4)CC3)nc2)c1 [Example 4-29]
7 | Cc1cc(Nc2cc(C(F)(F)F)ccn2)nc(-c2ccc(NC3CCN(C(=O)c4cccc5[nH]ccc45)CC3)nc2)c1 [Example 4-33]
8 | Cc1cc(Nc2cc(C(F)(F)F)ccn2)nc(-c2ccc(NC3CCN(C(=O)Cc4ccc5[nH]c(C)c(C)c5c4)CC3)nc2)c1 [Example 4-34]
3 | Cc1cc(Nc2cc(C(F)(F)F)ccn2)nc(-c2ccc(NC3CCN(C(=O)c4nccc5ncccc45)CC3)nc2)c1 [Example 4-35]
1 | Cc1cc(Nc2cc(C(F)(F)F)ccn2)nc(-c2ccc(NC3CCN(C(=O)c4cnn5cccnc45)CC3)nc2)c1 [Example 4-37]
7 | Cc1cc(Nc2cc(C(F)(F)F)ccn2)nc(-c2ccc(NC3CCN(C(=O)c4cccc5cc(O)ccc45)CC3)nc2)c1 [Example 4-39]
4 | Cc1cc(Nc2cc(C(F)(F)F)ccn2)nc(-c2ccc(NC3CCN(C(=O)c4cccc(N(C)C)c4)CC3)nc2)c1 [Example 4-42]
< 0.5 | Cc1cc(Nc2cc(C(F)(F)F)ccn2)nc(-c2ccc(NC3CCN(C(=O)c4ccc5cccnc5n4)CC3)nc2)c1 [Example 4-44]
7 | Cc1cc(Nc2cc(C(F)(F)F)ccn2)nc(-c2ccc(NC3CCN(C(=O)c4cccc5cccnc45)CC3)nc2)c1 [Example 4-45]
4 | Cc1cc(Nc2cc(C(F)(F)F)ccn2)nc(-c2ccc(NC3CCN(C(=O)c4cccc(S(C)(=O)=O)c4)CC3)nc2)c1 [Example 4-46]
4 | CC(=O)Nc1cccc(C(=O)N2CCC(Nc3ccc(-c4cc(C)cc(Nc5cc(C(F)(F)F)ccn5)n4)cn3)CC2)c1 [Example 4-58]
4 | Cc1cc(Nc2cc(C(F)(F)F)ccn2)nc(-c2ccc(NC3CCN(C(=O)c4cc5ccccc5cn4)CC3)nc2)c1 [Example 4-61]
7 | Cc1cc(Nc2cc(C(F)(F)F)ccn2)nc(-c2ccc(NC3CCN(C(=O)c4cnc5ccccn45)CC3)nc2)c1 [Example 4-63]
